PMC9237828, “Chemically Tuning Resveratrol for the Effective Killing of Gram-Positive Pathogens” (Journal of Natural Products, 2022)
Converted amounts (≈) assume the structure as drawn.

Tests used:
[1] = tested on: panel of aerobic and anaerobic Gram-positive bacteria; experiment: organism not typed; format: cell-based
E. faecalis LMG08222 = experiment: microbe, parasite or virus in culture; format: cell-based, Enterococcus faecalis; settings: Enterococcus faecalis, LMG08222, 20 h, read-out: Minimal Inhibition Concentration (MIC) E. faecalis LMG08222
E. faecalis V583 = experiment: microbe, parasite or virus in culture; format: cell-based, Enterococcus faecalis; settings: Enterococcus faecalis, V583, 20 h, read-out: Minimal Inhibition Concentration (MIC) E. faecalis V583
E. faecium LMG16003 [2] = experiment: Combined action with antibiotics (MIC reduction, checkerboard FICI); format: cell-based
S. aureus LMG8224 = experiment: as above; format: cell-based, Staphylococcus aureus; settings: for MIC of antibiotic in combination with RES: RES at 4 μM; for FICI, antibiotic with 15 / FICI, antibiotic with 17: fractional inhibitory concentration index, EUCAST, * means relevant FICI values
B. cereus ATCC10987 = experiment: microbe, parasite or virus in culture; format: cell-based, Bacillus cereus; settings: Bacillus cereus, ATCC10987, 20 h, read-out: Minimal Inhibition Concentration (MIC) B. cereus ATCC10987
B. cereus ATCC14579 = experiment: microbe, parasite or virus in culture; format: cell-based, Bacillus cereus; settings: Bacillus cereus, ATCC14579, 20 h, read-out: Minimal Inhibition Concentration (MIC) B. cereus ATCC14579
C. beijerinckii B504 = experiment: MIC test, anaerobes; format: cell-based; settings: Clostridium beijerinckii, B504, 24 h; read-out: Minimal Inhibition Concentration (MIC) C. beijerinckii B504
Protocol: (§1) The resveratrol derivatives were serially diluted in cMHB (BD Difco) in 96-well microplates. Plates were then inoculated with the indicator bacteria at a final concentration of 5 × 10^5 CFU/mL and incubated at 37 °C for 20 h. In the case of the anaerobic bacteria (Clostridium and Clostridioides), the test was performed following the recommendation of CLSI for anaerobes[77] but using RCM medium instead of cMHB. The cultures were cultivated inside an anaerobic chamber at 37 °C for 24 h. All the tests were performed in triplicate.

C. ihumii AP5 = experiment: MIC test, anaerobes; format: cell-based; settings: 24 h; read-out: Minimal Inhibition Concentration (MIC) C. ihumii AP5
Protocol: as §1

C. botulinum CECT551 = experiment: microbe, parasite or virus in culture; format: cell-based; settings: Clostridium botulinum, CECT551, 24 h, read-out: Minimal Inhibition Concentration (MIC) C. botulinum CECT551
C. perfringens CECT376 = experiment: microbe, parasite or virus in culture; format: cell-based; settings: Clostridium perfringens, CECT376, 24 h, read-out: Minimal Inhibition Concentration (MIC) C. perfringens CECT376
C. tetani CECT4629 = experiment: microbe, parasite or virus in culture; format: cell-based; settings: Clostridium tetani, CECT4629, 24 h, read-out: Minimal Inhibition Concentration (MIC) C. tetani CECT4629
E. faecium LMG16003 [3] = experiment: microbe, parasite or virus in culture; format: cell-based; settings: Enterococcus faecium, LMG16003, 20 h, read-out: Minimal Inhibition Concentration (MIC) E. faecium LMG16003
S.aureus LMG8224 = experiment: microbe, parasite or virus in culture; format: cell-based, Staphylococcus aureus; settings: Staphylococcus aureus, LMG8224, 20 h, read-out: Minimal Inhibition Concentration (MIC) S.aureus LMG8224
C. difficile CECT531 = experiment: microbe, parasite or virus in culture; format: cell-based, Clostridioides difficile; settings: Clostridioides difficile, CECT531, 24 h, read-out: Minimal Inhibition Concentration (MIC) C. difficile CECT531
[4] = fractional inhibitory concentration index, EUCAST, * means relevant FICI values

Compound: O=S(=O)(O)Oc1ccc(/C=C/c2cc(O)cc(OS(=O)(=O)O)c2)cc1 [compound 7, Resveratrol 3,4′-disulfate]
- antibacterial activity against the Gram-positive panel [1]: did not show antibiotic activity

Compound: CC(C)[Si](Oc1ccc(/C=C/c2cc(O[Si](C(C)C)(C(C)C)C(C)C)cc(OS(=O)(=O)O)c2)cc1)(C(C)C)C(C)C [compound 36, 3-Sulfate-4′,5-diisopropylsilyl resveratrol]
- MIC (E. faecalis LMG08222): 128 µM (≈ 79.5 µg/mL)
- MIC (E. faecalis V583): 128 µM (≈ 79.5 µg/mL)

Compound: CC(C)(C)[Si](C)(C)Oc1cc(/C=C/c2ccc(O)cc2)cc(O[Si](C)(C)C(C)(C)C)c1 [compound 18]
- antibacterial activity against the Gram-positive panel [1]: not active or displayed very low antibacterial activity

Compound: NC[C@H]1O[C@H](O[C@H]2[C@H](O)[C@@H](O[C@H]3O[C@H](CO)[C@@H](O)[C@H](N)[C@H]3O)[C@H](N)C[C@@H]2N)[C@H](O)[C@@H](O)[C@@H]1O [Kan, kanamycin]
- MIC of antibiotic in combination with 17 (E. faecium LMG16003 [2]; 17 at 4 μM): 32 ± 0 µM
- MIC of antibiotic alone (Ab) (E. faecium LMG16003 [2]): >32 µM
- FICI, antibiotic with 17 (E. faecium LMG16003 [2]; [4]): 1*
- MIC of antibiotic in combination with 15 (S. aureus LMG8224; 15 at 2 μM): 2 ± 0 µM
- MIC of antibiotic in combination with 15 (S. aureus LMG8224; 15 at 4 μM): 0.6 ± 0.1 µM
- MIC of antibiotic in combination with 17 (S. aureus LMG8224; 17 at 2 μM): 2 ± 0 µM
- MIC of antibiotic in combination with 17 (S. aureus LMG8224; 17 at 4 μM): 1 ± 0 µM
- MIC of antibiotic in combination with RES (S. aureus LMG8224): 4 ± 0 µM
- MIC of antibiotic alone (Ab) (S. aureus LMG8224): 4 ± 0 µM
- FICI, antibiotic with 15 (S. aureus LMG8224): 0.41
- FICI, antibiotic with 17 (S. aureus LMG8224): 0.75

Compound: CCOc1cc(O)cc(/C=C/c2ccc(O)cc2)c1 [compound 10]
- MIC (B. cereus ATCC10987): 128 µM (≈ 32.8 µg/mL)
- MIC (B. cereus ATCC14579): 128 µM (≈ 32.8 µg/mL)

Compound: CC(C)(C)[Si](C)(C)Oc1ccc(/C=C/c2cc(O)cc(O[Si](C)(C)C(C)(C)C)c2)cc1 [compound 19]
- MIC (C. beijerinckii B504): 32 µM (≈ 14.6 µg/mL)
- MIC (C. ihumii AP5): 128 µM (≈ 58.5 µg/mL)
- MIC (C. botulinum CECT551): 53.3 ± 10.6 µM (≈ 24.3 µg/mL)
- MIC (C. perfringens CECT376): 128 µM (≈ 58.5 µg/mL)
- MIC (C. tetani CECT4629): 5.3 ± 1.3 µM (≈ 2.42 µg/mL)
- antibacterial activity against the Gram-positive panel [1]: not active or displayed very low antibacterial activity

Compound: CNC(C)C1CCC(N)C(OC2C(N)CC(N)C(OC3OCC(C)(O)C(NC)C3O)C2O)O1 (centres unmarked) [gentamicin]
- MIC (B. cereus ATCC10987): 4 µM (≈ 1.91 µg/mL)
- MIC (E. faecalis V583): > 32 µM
- MIC (E. faecium LMG16003 [3]): 12.6 ± 1.61 µM (≈ 6 µg/mL)
- MIC (S.aureus LMG8224): 1 ± 0.35 µM (≈ 0.478 µg/mL)
- MIC (C. difficile CECT531): > 32 µM
- MIC (C. perfringens CECT376): > 32 µM
- MIC of antibiotic in combination with 15 (E. faecium LMG16003 [2]; 15 at 4 μM): 13.3 ± 1.8 µM
- MIC of antibiotic in combination with 15 (E. faecium LMG16003 [2]; 15 at 8 μM): 5.3 ± 0.9 µM
- MIC of antibiotic in combination with 17 (E. faecium LMG16003 [2]; 17 at 2 μM): 13.3 ± 1.8 µM
- MIC of antibiotic in combination with 17 (E. faecium LMG16003 [2]; 17 at 4 μM): 6.6 ± 0.9 µM
- FICI, antibiotic with 15 (E. faecium LMG16003 [2]; [4]): 0.41
- FICI, antibiotic with 17 (E. faecium LMG16003 [2]; [4]): 0.66
- MIC of antibiotic in combination with 15 (S. aureus LMG8224; 15 at 2 μM): 0.5 ± 0 µM
- MIC of antibiotic in combination with 15 (S. aureus LMG8224; 15 at 4 μM): 0.1 ± 0 µM
- MIC of antibiotic in combination with 17 (S. aureus LMG8224; 17 at 2 μM): 0.3 ± 0 µM
- MIC of antibiotic in combination with 17 (S. aureus LMG8224; 17 at 4 μM): 0.1 ± 0 µM
- MIC of antibiotic in combination with RES (S. aureus LMG8224): 1 ± 0 µM
- MIC of antibiotic alone (Ab) (S. aureus LMG8224): 1 ± 0 µM
- FICI, antibiotic with 15 (S. aureus LMG8224): 0.37
- FICI, antibiotic with 17 (S. aureus LMG8224): 0.58

Compound: COc1cc(O)cc(/C=C/c2ccc(O[C@H]3O[C@@H](C(=O)O)[C@H](O)[C@@H](O)[C@@H]3O)cc2)c1 [compound 29]
- antibacterial activity against the Gram-positive panel [1]: did not show antibiotic activity

Compound: CCCCCCCC(=O)OC[C@H]1O[C@@H](Oc2cc(O)cc(/C=C/c3ccc(O)cc3)c2)[C@H](O)[C@@H](O)[C@@H]1O [compound 3]
- MIC (C. beijerinckii B504): 32 µM (≈ 16.5 µg/mL)
- MIC (C. botulinum CECT551): 32 µM (≈ 16.5 µg/mL)
- MIC (C. tetani CECT4629): 21.3 ± 5.3 µM (≈ 11 µg/mL)

Compound: [H]/N=C(/N)N[C@H]1[C@H](O)[C@@H](O)[C@H](O[C@@H]2O[C@@H](C)[C@](O)(C=O)[C@H]2O[C@@H]2O[C@@H](CO)[C@H](O)[C@@H](O)[C@@H]2NC)[C@@H](N/C(N)=N\[H])[C@@H]1O [Str, streptomycin]
- MIC of antibiotic alone (Ab) (E. faecium LMG16003 [2]): 32 ± 0 µM
- MIC of antibiotic in combination with 17 (S. aureus LMG8224; 17 at 2 μM): 8 ± 0 µM
- MIC of antibiotic in combination with 17 (S. aureus LMG8224; 17 at 4 μM): 4 ± 0 µM
- MIC of antibiotic in combination with RES (S. aureus LMG8224): 16 ± 0 µM
- MIC of antibiotic alone (Ab) (S. aureus LMG8224): 16 ± 0 µM
- FICI, antibiotic with 17 (S. aureus LMG8224): 0.75
